Test results from US20150125889A1, “IN VITRO DETECTION OF MICROORGANISMS WITH AZOREDUCTASE ACTIVITY” (BIOMÉRIEUX, priority 2012, published 2015).

Tests used:
Format in all cases: cell-based
[1] = test system: Staphylococcus epidermidis; assay: Reduction of azo substrates over 24 hours at 35° C., microtitration plate (Example 1); design: key to RED (substrate reduced or not): RED indicates whether the substrate is reduced (Y) or not (N); RED indicates whether the substrate is reduced (Y) or not (N); key to Co (growth, absorbance at 660 nm) / Decol (substrate decolourized, decrease in absorbance) / Fluo (fluorescence multiplied by 2 relative to substrate-free control): The symbol “+” means good growth/decolourization/significant increase in fluorescence; The symbol “+/−” means difficult growth; The symbol “−” means that there is no growth/decolourization/significant increase in fluorescence; details: S. epidermidis, substrate 35 mg/l
Procedure, shortened: (§1)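 Each species is represented by a single strain inoculated at 0.5 McFarland into Trypcase soya broth with substrate at 35 mg/l. Plates are read continuously at 35° C. over 24 hours. A substrate counts as reduced when absorbance falls or fluorescence doubles relative to a substrate-free control.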

[2] = test system: Candida albicans; assay: as above; design: key to RED (substrate reduced or not): RED indicates whether the substrate is reduced (Y) or not (N); RED indicates whether the substrate is reduced (Y) or not (N); key to Co (growth, absorbance at 660 nm) / Decol (substrate decolourized, decrease in absorbance) / Fluo (fluorescence multiplied by 2 relative to substrate-free control): The symbol “+” means good growth/decolourization/significant increase in fluorescence; The symbol “+/−” means difficult growth; The symbol “−” means that there is no growth/decolourization/significant increase in fluorescence; details: substrate 35 mg/l
Procedure, shortened: as §1

[3] = test system: Escherichia coli; assay: as above; design: key to RED (substrate reduced or not): RED indicates whether the substrate is reduced (Y) or not (N); RED indicates whether the substrate is reduced (Y) or not (N); key to Co (growth, absorbance at 660 nm) / Decol (substrate decolourized, decrease in absorbance) / Fluo (fluorescence multiplied by 2 relative to substrate-free control): The symbol “+” means good growth/decolourization/significant increase in fluorescence; The symbol “+/−” means difficult growth; The symbol “−” means that there is no growth/decolourization/significant increase in fluorescence; details: E. coli, substrate 35 mg/l
Procedure, shortened: as §1

[4] = test system: 10 strains representing 10 species of microorganisms; assay: Reduction of azo substrates, whole panel of Example 1; details: substrate 35 mg/l, 35° C., 24 hours
Experimental: Reduction of the “azo” function of the substrates listed in Table I by the species listed in Table II, each species being represented by a strain, is tested in a microtitration plate.
The reaction medium consists of: • Trypcase soya broth • Substrate 35 mg/l • 0.5 MacFarland inoculum
The reduction of the substrate and the growth of the microorganisms are monitored using an Infinite® M200 Tecan microplate reader at 35° C. over 24 hours.
The growth is monitored by the absorbance at 660 nm and the reduction of the substrates by absorbance and fluorescence at the specific wavelengths indicated in Table III.
The substrate is considered as reduced by the microorganisms when the substrate is decolourized (monitored by the decrease in absorbance) (Decol) and/or when the fluorescence of the substrate is multiplied by 2 relative to the base fluorescence of a substrate-free control (Fluo). The growth is indicated by Co. The symbol “+” means good growth/decolourization/significant increase in fluorescence. The symbol “+/−” means difficult growth. The symbol “−” means that there is no growth/decolourization/significant increase in fluorescence. RED indicates whether the substrate is reduced (Y) or not (N).

[5] = test system: 45 strains representing 25 species of microorganisms; assay: Reduction of 3 azo substrates, whole panel of Example 2; details: substrate 35 mg/l, 35° C., 24 hours
Experimental: (§2) The reduction of the “azo” function of the substrates listed in Table V by the 25 species listed in Table VI, each being represented by one or two strains, is tested in a microtitration plate. The reaction medium consists of: • Trypcase soya broth • Substrate 35 mg/l • 0.5 MacFarland inoculum The reduction of the substrate and the growth of the microorganisms are monitored using an Infinite® M200 Tecan microplate reader at 35° C. over 24 hours. The growth is monitored by the absorbance at 660 nm, and the reduction of the substrates by absorbance and fluorescence at the wavelengths indicated in Table III above. The substrate is considered as reduced by the microorganisms when the fluorescence is multiplied by 2 relative to the base fluorescence of the reaction medium.

[6] = test system: Streptococcus pyogenes; assay: Reduction of 3 azo substrates over 24 hours at 35° C. (Example 2); design: key: The strains that reduce the substrate are marked with a “+”; the strains that do not reduce the substrate are marked with a “−”; details: substrate 35 mg/l
Experimental: as §2

[7] = test system: Citrobacter koseri; assay: as above; design: key: The strains that reduce the substrate are marked with a “+”; the strains that do not reduce the substrate are marked with a “−”; details: substrate 35 mg/l
Experimental: as §2

[8] = test system: Saccharomyces cerevisiae; assay: as above; design: key: The strains that reduce the substrate are marked with a “+”; the strains that do not reduce the substrate are marked with a “−”; details: substrate 35 mg/l
Experimental: as §2

[9] = test system: Staphylococcus haemolyticus; assay: as above; design: key: The strains that reduce the substrate are marked with a “+”; the strains that do not reduce the substrate are marked with a “−”; details: substrate 35 mg/l
Experimental: as §2

[10] = test system: Staphylococcus hominis; assay: as above; design: key: The strains that reduce the substrate are marked with a “+”; the strains that do not reduce the substrate are marked with a “−”; details: substrate 35 mg/l
Experimental: as §2

SMILES | Co (growth, absorbance at 660 nm) [1] | Decol (substrate decolourized, decrease in absorbance) [1] | Fluo (fluorescence multiplied by 2 relative to substrate-free control) [1] | RED (substrate reduced or not) [1] | Co (growth, absorbance at 660 nm) [2] | Decol (substrate decolourized, decrease in absorbance) [2] | Fluo (fluorescence multiplied by 2 relative to substrate-free control) [2] | RED (substrate reduced or not) [2] | Co (growth, absorbance at 660 nm) [3] | Decol (substrate decolourized, decrease in absorbance) [3] | Fluo (fluorescence multiplied by 2 relative to substrate-free control) [3] | RED (substrate reduced or not) [3] | reduction by the microorganisms tested (Table IV) [4] | reduction by the species tested (Table VII) [5] | reduction of the substrate by the strain (fluorescence multiplied by 2) [6] | reduction of the substrate by the strain (fluorescence multiplied by 2) [7] | reduction of the substrate by the strain (fluorescence multiplied by 2) [8] | reduction of the substrate by the strain (fluorescence multiplied by 2) [9] | reduction of the substrate by the strain (fluorescence multiplied by 2) [10]
O=C(O)c1cc(/N=N/c2ccc(-c3nc4ccccc4s3)cc2)ccc1O [BF45, 2-Phenyl-benzothiazole-4′-azo-4″- hydroxybenzene-3″-carboxylic acid] | + | − | + | Y | + | − | − | N | + | − | + | Y |  |  |  |  |  |  | 
CN(C)c1ccc(N=Nc2ccc(S(=O)(=O)[O-])cc2)cc1.[Na+] [Methyl orange] | + | − | − | N | + | − | − | N | + | − | − | N | reduced only by E. faecalis |  |  |  |  |  | 
CN(C)c1ccc(/N=N/c2ccccc2C(=O)O)cc1 [Methyl red] | + | + | + | Y | + | + | + | Y | + | + | + | Y | can be reduced by all the microorganisms tested |  |  |  |  |  | 
O=S(=O)([O-])c1ccc(N=Nc2c(O)ccc3ccccc23)cc1.[Na+] [Orange II] | + | − | − | N | + | − | − | N | + | − | − | N |  | reduced mainly by E. faecalis | − | − | − | − | −
O=C([O-])C1=NN(c2ccc(S(=O)(=O)[O-])cc2)C(=O)C1/N=N/c1ccc(S(=O)(=O)[O-])cc1.[Na+].[Na+].[Na+] (centres unmarked) [Tartrazine] | + | − | − | N | + | − | − | N | + | − | − | N |  | reduced mainly by E. faecalis | − | − | − | − | −
